Assays:
[1] = system: retinal vasculature in OIR mouse model; experiment: Morphometric assessment of retinal vascular density (CD31 staining), OIR mouse model; assay type: in vivo, C57BL/6J mice; conditions: OIR mice, P17; DMSO 88, normoxic 154
Method: Retinal NV was induced in newborn mice as described previously. Briefly, P7 mice were exposed with their nursing mother, for 5 days [between P7 and P12] to hyperoxic conditions, by incubating them in an airtight chamber [PROOX 110 chamber O2 controller; Biospherix Ltd., Redfield, N.Y.] ventilated by a mixture of O2 and air to a final oxygen fraction of 75±2%. These incubation conditions induced vaso-obliteration and subsequent cessation of vascular development in the capillary beds of the central retina. At P12, the mice were allowed to recover in normal room air conditions and maintained for another 5 days [till P17], the day in which peak disease occurs. A condition of relative hypoxia resulted between P12 and P17, and extensive retinal NV developed in 100% of the mice. […]
Retinas were harvested at various time points and fixed with 4% paraformaldehyde (PFA) and methanol followed by blocking in 50% FBS/20% normal goat serum for 1 hour at room temperature. […] Quantitation of PECAM/CD-31 immunostaining was processed morphometrically using Metamorph™ imaging software [Universal Imaging, Sunnyvale, Calif.] to determine the area of positive staining for YC-1-treatedt vs. control group. […] All results were expressed as meant S.E.M. Differences were considered statistically significant at **P<0.01.

endothelial tip cells = experiment: Filopodia number and length on endothelial tip cells, OIR mouse model; assay type: in vivo, C57BL/6J mice; conditions: OIR mice injected with YC-1 [25-100 μl], vs DMSO-treated retinas
Method: FIG. 4 the Influence of YC-1 on filopodia number and length. […] Image of tip cells along the leading edge of vascularization from; [A] Non-treated ischemic retinas; [B] DMSO-treated retinas; [C, D, E, and F] represent retinas from animals that were injected with YC-1 [25-100 μl]. Filopodia lengths and number/tip cell were not influenced by DMSO treatment. […] [n=5 per group].
A. Filopodia from DMSO-treated retinas had approximately similar lengths as the nontreated ischemic retinas. […] [ANOVA, ***P<0.001; **P<0.01 between YC-1 and DMSO]. There were 24 tip cells/retina that were averaged. [n=5 per group].
B. DMSO has no influence on the number of filopodia/tip cell. […] [ANOVA, ***P<0.001; **P<0.01 between YC-1 and DMSO]. There were 24 tip cells/retina that were averaged. [n=5 per group].
Retinal NV was induced in newborn mice as described previously. Briefly, P7 mice were exposed with their nursing mother, for 5 days [between P7 and P12] to hyperoxic conditions, by incubating them in an airtight chamber [PROOX 110 chamber O2 controller; Biospherix Ltd., Redfield, N.Y.] ventilated by a mixture of O2 and air to a final oxygen fraction of 75±2%. These incubation conditions induced vaso-obliteration and subsequent cessation of vascular development in the capillary beds of the central retina. […]

[2] = system: hRMVECs cocultured with rMC-1 cells; experiment: Cell proliferation in a co-culture system model (MTT); assay type: cell-based, human; conditions: rMC-1 cells treated with YC-1 100 μM for 24 hours, normoxic and hypoxic conditions
Method: To test the influence of Móller cells [rMC-1] on the hRMVECs proliferation, rMC-1 [2×10^5 cells cm—2] were plated in a transwell insert [Millipore, Billerica, Mass.] with […] pores and allowed to adhere overnight in 150 μL of CS—C complete medium [Cell Systems, Kirkland, Wash.], supplemented with 10% FBS and incubated at 37° C. under normoxic [5% CO2/95% air]. The rMC-1 cells were then incubated under normoxic [5% CO2/95% air], or hypoxic conditions. To establish hypoxic conditions, cells were placed in airtight chambers [BioSpherix, Redfield, N.Y.] that were flushed with a gas mixture of 5% CO2 and 95% N2. Oxygen concentrations within these chambers were maintained at 1.2% using Pro-Ox Model 110 O2 regulators. After treating the r-MC-1 cells with YC-1 [100 μM] for 24 hours, the insert was then placed into 24 well-plates, in which hRMVECs were plated at 5×10^3 cells cm^−2 and allowed to adhere overnight [FIG. 7B]. hRMVECs proliferation was evaluated using 3, […]-2,5-diphenyl tetrazolium bromide [MTT] colorimetric assay [Mosmann,1983], at 24, 48, 72, and 96 hours after coculture. During the last 4 hours of each day, […] of 5 mg/ml MTT [Millipore, Billerica, Mass.] was added in each well. Formed Formazan crystals were dissolved in […] DMSO and optical density was recorded at 492 nm. Experiments were performed on at least three independent occasions. […]

## OCc1ccc(-c2nn(Cc3ccccc3)c3ccccc23)o1 [YC-1, 3-(5′-hydroxymethyl-2′-furyl)-1-benzylindazole]
[1]
  mean vascular density (endothelial cells per reticle square, CD31): 148±2
Endothelial tip cells
  number of filopodia on endothelial tip cells: significantly and dose-dependently reduced
  total length of filopodia on endothelial tip cells: significantly and dose-dependently reduced
[2]
  proliferation of hRMVECs in coculture: significantly suppressed

— US20140163082A1, “PYRAZOLYL COMPOUNDS FOR USE IN REVERSING REACTIVE GLIOSIS” (priority 2011, published 2014)
